Data set [1] in a line: solubility in attempts at crystallographic structural analyses. The class given is physicochemical. Conditions: for crystallography with galectin-3C.
In another data set the target is Galectin-3 Wild-Type (Homo sapiens, UniProt P17931). The data set is described as follows: competitive fluorescence polarization assay, galectin-3 wild-type. The class given is binding. As for the experimental part: Fluorescence polarization experiments were carried out either with a POLARStar plate reader and FLUOstar Galaxy software or with a PheraStarFS plate reader and PHERAstar Mars version 2.10 R3 software (BMG, Offenburg, Germany). The dissociation constant (Kd) values were determined in PBS as described earlier.[13],[18] Compounds were dissolved in neat DMSO at 20 mM and diluted in PBS to 3–6 different concentrations to be tested in duplicate.
Sequence of Galectin-3 Wild-Type (P17931 whole entry): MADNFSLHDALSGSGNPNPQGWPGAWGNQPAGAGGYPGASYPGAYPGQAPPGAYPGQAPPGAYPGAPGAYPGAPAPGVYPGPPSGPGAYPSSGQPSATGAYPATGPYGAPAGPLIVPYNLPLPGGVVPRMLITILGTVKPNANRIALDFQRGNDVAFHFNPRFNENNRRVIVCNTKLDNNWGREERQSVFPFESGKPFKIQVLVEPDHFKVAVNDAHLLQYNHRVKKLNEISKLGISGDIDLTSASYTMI

The target in another data set is galectin-3 R144K (Homo sapiens, UniProt P17931, R144K). Kind of data set: competitive fluorescence polarization assay, galectin-3 R144K mutant. The format is binding. The procedure: (§1) Fluorescence polarization experiments were carried out either with a POLARStar plate reader and FLUOstar Galaxy software or with a PheraStarFS plate reader and PHERAstar Mars version 2.10 R3 software (BMG, Offenburg, Germany). The dissociation constant (Kd) values were determined in PBS as described earlier.[13],[18] Compounds were dissolved in neat DMSO at 20 mM and diluted in PBS to 3–6 different concentrations to be tested in duplicate. Average Kd values and SEMs were calculated from 2 to 8 single-triple point measurements showing between 20 and 80% inhibition.
Sequence of galectin-3 R144K (P17931 whole entry R144K): as the sequence (P17931 whole entry) above, with R144K counted along it

The target of another data set is galectin-3 R144S (Homo sapiens, UniProt P17931, R144S). The data set is described as follows: competitive fluorescence polarization assay, galectin-3 R144S mutant. The format is binding. As for the experimental part:
as §1
Background: In fluorescence polarisation assays a small probe gives low polarisation when free and higher when bound to something large.

Data set [2] addresses T1, galectin-3C (the C-terminal domain of galectin-3) (Homo sapiens, UniProt P17931).
T1 construct: galectin-3C (the C-terminal domain of galectin-3)
Kind of data set: isothermal titration calorimetry (ITC) with galectin-3C. To be noted: 301 K. The format is binding. As for the experimental part: Stock solutions of the ligands were prepared in a buffer at 5 mM. The ligands were diluted with buffer to concentrations between 2 and 3 mM. […] All thermograms were integrated using NITPIC, the titration curves were fitted using SEDPHAT with error estimates using the automatic confidence interval search with projection method, and all figures were made in GUSSI.
(ITC needs no label: the signal is the heat of the interaction.)

This is an account of results in PMC10641817, “Ligand Sulfur Oxidation State Progressively Alters Galectin-3-Ligand Complex Conformations To Induce Affinity-Influencing Hydrogen Bonds” (Journal of Medicinal Chemistry, 2023).

Where “and” joins values, the source holds several entries; their conditions need not be identical. Equal entries are not always repeated.

T1 sequence (P17931 118-248 limits assumed): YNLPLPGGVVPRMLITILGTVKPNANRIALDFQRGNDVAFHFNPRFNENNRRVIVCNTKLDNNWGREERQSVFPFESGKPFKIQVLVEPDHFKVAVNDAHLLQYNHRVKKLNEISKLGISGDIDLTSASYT
Sequence of galectin-3 R144S (P17931 whole entry R144S): as the sequence (P17931 whole entry) above, with R144S counted along it

`Cc1ccc(S[C@@H]2O[C@H](CO)[C@H](O)[C@H](n3cc(Sc4ccccc4)nn3)[C@H]2O)cc1` [4a, p-Methylphenyl 3-deoxy-3-[4-phenylsulfane-1H-1,2,3-triazol-1-yl] 1-thio-β-D-galactopyranoside]: the solubility entry in data set [1] is on record as “insufficient solubility”.

For `Cc1ccc(S[C@@H]2O[C@H](CO)[C@H](O)[C@H](n3cc([S+]([O-])c4ccccc4)nn3)[C@H]2O)cc1` (stereo partly drawn) [4b, p-Methylphenyl 3-deoxy-3-[4-phenylsulfinyl-1H-1,2,3-triazole-1yl] 1-thio-β-D-galactopyranoside], the “inhibition at the highest tested concentration” value on Galectin-3 Wild-Type (2 mM, fluorescence polarization, galectin-3) was “b Weak inhibition at the highest tested concentration of 4b (2 mM) did not allow for accurate determination of the Kd value”. Also, at Galectin-3 Wild-Type (Table 1, galectin-3 wild-type, fluorescence polarization in PBS), the Kd (commonly the concentration at which binding is half-saturated) is over 600 µM. Moreover, the solubility result in data set [1] is given as “insufficient solubility”.

Regarding `Cc1ccc(S[C@@H]2O[C@H](CO)[C@H](O)[C@H](n3cc(S(=O)(=O)c4ccccc4)nn3)[C@H]2O)cc1` [4c, p-Methylphenyl 3-deoxy-3-[4-phenylsulfonyl-1H-1,2,3-triazole-1yl] 1-thio-β-D-galactopyranoside], the Kd on galectin-3 R144K amounted to 250 ± 6 µM; on galectin-3 R144S, 600 ± 80 µM. Also, the solubility result in data set [1] is listed as “insufficient solubility”.

With `[O-][S+](c1ccccc1)c1cn([C@H]2[C@@H](O)[C@@H](CO)O[C@@H](S[C@@H]3O[C@H](CO)[C@@H](O)[C@H](O)[C@H]3O)[C@@H]2O)nn1` (stereo partly drawn) [6b, 3′-Deoxy-3′-[4-phenylsulfinyl-1H-1,2,3-triazol-1-yl] -β-D-galactopyranosyl-1-thio-β-D-glucopyranoside], the Kd in data set [2] was 94.2 µM and 94 µM.
